Our source for the IC50 values is US20250340560A1, “SUBSTITUTED PYRAZOLO[1,5-a]PYRIMIDINES AS BRUTON'S TYROSINE KINASE MODULATORS” (BEIGENE SWITZERLAND GMBH, priority 2013, published 2025).

Counter-ions that a name gives are not always drawn. Where only a bound is given, the exact number is not on record here.

In the assay the target is Recombinant Btk (Homo sapiens (Human), UniProt Q06187). Description: BTK kinase assay (TR-FRET). The settings on record: read-out: IC50 (nM) Btk; 1 hour pre-incubation, ATP at Km. For orientation: In TR-FRET formats the signal depends on donor and acceptor labels being close together.
Sequence of Recombinant Btk (Q06187 whole entry): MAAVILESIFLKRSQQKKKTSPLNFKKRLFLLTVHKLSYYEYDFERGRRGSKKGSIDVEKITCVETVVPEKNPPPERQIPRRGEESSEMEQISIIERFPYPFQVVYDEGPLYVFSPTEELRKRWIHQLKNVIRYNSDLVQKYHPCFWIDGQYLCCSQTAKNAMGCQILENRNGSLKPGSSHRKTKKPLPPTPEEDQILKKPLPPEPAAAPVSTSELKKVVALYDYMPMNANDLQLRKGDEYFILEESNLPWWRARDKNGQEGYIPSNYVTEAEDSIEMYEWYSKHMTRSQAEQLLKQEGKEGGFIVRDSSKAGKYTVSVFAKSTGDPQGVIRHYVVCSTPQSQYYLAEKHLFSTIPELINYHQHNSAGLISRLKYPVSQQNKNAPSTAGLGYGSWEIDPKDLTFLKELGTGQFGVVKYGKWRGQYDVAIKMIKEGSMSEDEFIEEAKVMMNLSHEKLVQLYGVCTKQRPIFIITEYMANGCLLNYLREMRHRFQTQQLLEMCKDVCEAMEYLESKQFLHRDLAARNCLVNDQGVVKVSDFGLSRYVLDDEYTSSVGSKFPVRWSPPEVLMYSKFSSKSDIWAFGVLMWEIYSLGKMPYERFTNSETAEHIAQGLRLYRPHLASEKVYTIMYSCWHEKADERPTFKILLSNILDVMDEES

Usually IC50 stands for the midpoint of a concentration-inhibition curve. With `NC(=O)c1c(-c2ccc(Oc3ccccc3)cc2)nn2c1NCCC2c1ccc(N)cc1` (stereo not shown) [Compound 98, 7-(4-aminophenyl)-2-(4-phenoxyphenyl)-4,5,6,7-tetrahydropyrazolo[1,5-a]pyrimidine-3-carboxamide], the IC50 amounted to 77 nM.
The value for `NC(=O)c1c(-c2ccc(Oc3ccccc3)cc2)nn2c1NCCC2c1ccncc1` (stereo not shown) [Compound 100, 2-(4-phenoxyphenyl)-7-(pyridin-4-yl)-4,5,6,7-tetrahydropyrazolo[1,5-a]pyrimidine-3-carboxamide] was 260 nM; that for `NC(=O)c1c(-c2ccc(Oc3ccccc3)cc2)nn2c1NCCC2c1cccnc1` (stereo not shown) [Compound 101, 2-(4-phenoxyphenyl)-7-(pyridin-3-yl)-4,5,6,7-tetrahydropyrazolo[1,5-a]pyrimidine-3-carboxamide] was 550 nM.
The value for `NC(=O)c1c(-c2ccc(Oc3ccccc3)cc2)nn2c1NCCC2c1ccccn1` (stereo not shown) [Compound 102, 2-(4-phenoxyphenyl)-7-(pyridin-2-yl)-4,5,6,7-tetrahydropyrazolo[1,5-a]pyrimidine-3-carboxamide] was 830 nM; that for `C=CC(=O)N1CCCC1C1CCNc2c(C(N)=O)c(-c3ccc(Oc4ccccc4)cc3)nn21` (stereo not shown) [Compound 103, 7-(1-acryloylpyrrolidin-2-yl)-2-(4-phenoxyphenyl)-4,5,6,7-tetrahydropyrazolo[1,5-a]pyrimidine-3-carboxamide] was 1.1 nM; that for `C=CC(=O)N1CC(C2CCNc3c(C(N)=O)c(-c4ccc(OCc5ccccc5)cc4)nn32)C1` (stereo not shown) [Compound 104, 7-(1-acryloylazetidin-3-yl)-2-(4-(benzyloxy)phenyl)-4,5,6,7-tetrahydropyrazolo[1,5-a]pyrimidine-3-carboxamide] was 2.6 nM.
Consider `C=CC(=O)N1CC(C2CCNc3c(C(N)=O)c(-c4ccc(OCc5ccccn5)cc4)nn32)C1` (stereo not shown) [Compound 105, 7-(1-acryloylazetidin-3-yl)-2-(4-(pyridin-2-ylmethoxy)phenyl)-4,5,6,7-tetrahydropyrazolo[1,5-a]pyrimidine-3-carboxamide], for which the IC50 stood at 18 nM.
Regarding `C=CC(=O)N1CC(C2CCNc3c(C(N)=O)c(-c4ccc(Oc5ccc(Cl)cc5)cc4)nn32)C1` (stereo not shown) [Compound 106, 7-(1-acryloylazetidin-3-yl)-2-(4-(4-chlorophenoxy)phenyl)-4,5,6,7-tetrahydropyrazolo[1,5-a]pyrimidine-3-carboxamide], the half-inhibitory concentration (IC50) came out at 1.4 nM.
The result for `C=CC(=O)N1CC(C2CCNc3c(C(N)=O)c(-c4ccc(Oc5cccc(Cl)c5)cc4)nn32)C1` (stereo not shown) [Compound 107, 7-(1-acryloylazetidin-3-yl)-2-(4-(3-chlorophenoxy)phenyl)-4,5,6,7-tetrahydropyrazolo[1,5-a]pyrimidine-3-carboxamide] reads 0.48 nM; that for `C=CC(=O)NCC1CCNc2c(C(N)=O)c(-c3ccc(OCc4ccccc4)cc3)nn21` (stereo not shown) [Compound 111, 7-(acrylamidomethyl)-2-(4-(benzyloxy)phenyl)-4,5,6,7-tetrahydropyrazolo[1,5-a]pyrimidine-3-carboxamide], 24 nM.
The result for `NCC1CCNc2c(C(N)=O)c(-c3ccc(OCC4CC4)cc3)nn21` (stereo not shown) [Compound 112, 7-(aminomethyl)-2-(4-(cyclopropylmethoxy)phenyl)-4,5,6,7-tetrahydropyrazolo[1,5-a]pyrimidine-3-carboxamide] reads over 10000 nM.
The value for `C=CC(=O)NCC1CCNc2c(C(N)=O)c(-c3ccc(OCC4CC4)cc3)nn21` (stereo not shown) [Compound 113, 7-(acrylamidomethyl)-2-(4-(cyclopropylmethoxy)phenyl)-4,5,6,7-tetrahydropyrazolo[1,5-a]pyrimidine-3-carboxamide] was 94 nM; that for `NC(=O)c1c(-c2ccc(Oc3ccccc3)cc2)nn2c1NCCC21CNC1` [Compound 118, 2′-(4-phenoxyphenyl)-5′,6′-dihydro-4′H-spiro[azetidine-3,7′-pyrazolo[1,5-a]pyrimidine]-3′-carboxamide] was 410 nM.
For the molecule `C=CC(=O)N1CC2(CCNc3c(C(N)=O)c(-c4ccc(Oc5ccccc5)cc4)nn32)C1` [Compound 119, 1-acryloyl-2′-(4-phenoxyphenyl)-5′,6′-dihydro-4′H-spiro[azetidine-3,7′-pyrazolo[1,5-a]pyrimidine]-3′-carboxamide], the IC50 was determined as 40 nM.
The result for `NC(=O)c1c(-c2ccc(Oc3ccccc3)cc2)nn2c3c([nH]c12)CCNCC3` [Compound 120] reads 180 nM; that for `CN(C)C/C=C/C(=O)N1CCc2[nH]c3c(C(N)=O)c(-c4ccc(Oc5ccccc5)cc4)nn3c2CC1` [Compound 122], 0.78 nM; that for `CN(C)C/C=C/C(=O)N1CCCc2[nH]c3c(C(N)=O)c(-c4ccc(Oc5ccccc5)cc4)nn3c2C1` [Compound 124, (E)-8-(4-(dimethylamino)but-2-enoyl)-2-(4-phenoxyphenyl)-4,5,6,7,8,9-hexahydropyrazolo[5′,1′:2,3]imidazo[4,5-c]azepine-3-carboxamide], 0.62 nM.
The value for `NC(=O)c1c(-c2ccc(OCc3ccccc3)cc2)nn2c3c([nH]c12)CCNC3` [Compound 125, 2-(4-(benzyloxy)phenyl)-5,6,7,8-tetrahydro-4H-pyrazolo[5′,1′:2,3]imidazo[4,5-c]pyridine-3-carboxamide formate] was 5000 nM; that for `C=CC(=O)N1CCc2[nH]c3c(C(N)=O)c(-c4ccc(OCc5ccccc5)cc4)nn3c2C1` [Compound 126, 7-Acryloyl-2-(4-(benzyloxy)phenyl)-5,6,7,8-tetrahydro-4H-pyrazolo[5′,1′:2,3]imidazo[4,5-c]pyridine-3-carboxamide] was 20 nM.
The result for `C=CC(=O)N1CCc2[nH]c3c(C(N)=O)c(-c4ccc(OCC5CC5)cc4)nn3c2C1` [Compound 127, 7-acryloyl-2-(4-(cyclopropylmethoxy)phenyl)-5,6,7,8-tetrahydro-4H-pyrazolo[5′,1′:2,3]imidazo[4,5-c]pyridine-3-carboxamide] reads 300 nM; that for `NC(=O)c1c(-c2ccc(Oc3ccccc3)cc2)nn2c1[nH]c1cc([N+](=O)[O-])ccc12` [Compound 128, 6-nitro-2-(4-phenoxyphenyl)-4H-benzo[4,5]imidazo[1,2-b]pyrazole-3-carboxamide], 930 nM.
For `NC(=O)c1c(-c2ccc(Oc3ccccc3)cc2)nn2c1[nH]c1cc(N)ccc12` [Compound 129], the IC50 was determined as 23 nM.
The result for `NC(=O)c1c(-c2ccc(Oc3ccccc3)cc2)nn2c1[nH]c1cccc(N)c12` [Compound 131, 8-amino-2-(4-phenoxyphenyl)-4H-benzo[4,5]imidazo[1,2-b]pyrazole-3-carboxamide] reads 170 nM; that for `C=CC(=O)N1CC(C2CCNc3c(C(N)=O)c(-c4ccc(Oc5ccc(Cl)c(Cl)c5)cc4)nn32)C1` (stereo not shown) [Compound 132, 7-(1-acryloylazetidin-3-yl)-2-(4-(3,4-dichlorophenoxy)phenyl)-4,5,6,7-tetrahydropyrazolo[1,5-a]pyrimidine-3-carboxamide], 1.7 nM.
Take `C=CC(=O)N1CC(C2CCNc3c(C(N)=O)c(-c4ccc(Oc5ccccc5C#N)cc4)nn32)C1` (stereo not shown) [Compound 135, 7-(1-acryloylazetidin-3-yl)-2-(4-(2-cyanophenoxy)phenyl)-4,5,6,7-tetrahydropyrazolo[1,5-a]pyrimidine-3-carboxamide]: the IC50 was 0.38 nM.
The value for `C=CC(=O)Nc1ccccc1C1CCNc2c(C(N)=O)c(-c3ccc(F)c(F)c3)nn21` (stereo not shown) [Compound 137, 7-(2-acrylamidophenyl)-2-(3,4-difluorophenyl)-4,5,6,7-tetrahydropyrazolo[1,5-a]pyrimidine-3-carboxamide] was 3.2 nM; that for `C=CC(=O)N1CCC(C2(C)CCNc3c(C(N)=O)c(-c4ccc(Oc5ccccc5)cc4)nn32)CC1` (stereo not shown) [Compound 138, 7-(1-acryloylpiperidin-4-yl)-7-methyl-2-(4-phenoxyphenyl)-4,5,6,7-tetrahydropyrazolo[1,5-a]pyrimidine-3-carboxamide] was 1 nM; that for `C=CC(=O)N1CC(C2CCNc3c(C(N)=O)c(-c4ccc(Oc5ccccc5)c(Cl)c4)nn32)C1` (stereo not shown) [Compound 139, 7-(1-acryloylazetidin-3-yl)-2-(3-chloro-4-phenoxyphenyl)-4,5,6,7-tetrahydropyrazolo[1,5-a]pyrimidine-3-carboxamide] was 0.44 nM.
As to `C=CC(=O)N1CC(C2CCNc3c(C(N)=O)c(-c4ccc(Oc5ccccc5)c(OC)c4)nn32)C1` (stereo not shown) [Compound 140, 7-(1-acryloylazetidin-3-yl)-2-(3-methoxy-4-phenoxyphenyl)-4,5,6,7-tetrahydropyrazolo[1,5-a]pyrimidine-3-carboxamide formate], the IC50 was determined as 3000 nM.
On to `C=CC(=O)N1CC(C2CCNc3c(C(N)=O)c(-c4ccc(OCCc5ccccc5)cc4)nn32)C1` (stereo not shown) [Compound 141, 7-(1-acryloylazetidin-3-yl)-2-(4-phenethoxyphenyl)-4,5,6,7-tetrahydropyrazolo[1,5-a]pyrimidine-3-carboxamide], for which the IC50 came out at 7 nM.
Regarding `C=CC(=O)NCC1CCNc2c(C(N)=O)c(-c3ccc(OCc4ccccc4)c(OC)c3)nn21` (stereo not shown) [Compound 142, 7-(acrylamidomethyl)-2-(4-(benzyloxy)-3-methoxyphenyl)-4,5,6,7-tetrahydropyrazolo[1,5-a]pyrimidine-3-carboxamide], the IC50 was found to be 54 nM.
The value for `C=CC(=O)NCC1(C)CCNc2c(C(N)=O)c(-c3ccc(Oc4ccccc4)cc3)nn21` (stereo not shown) [Compound 143, 7-(acrylamidomethyl)-7-methyl-2-(4-phenoxyphenyl)-4,5,6,7-tetrahydropyrazolo[1,5-a]pyrimidine-3-carboxamide] was 0.89 nM; that for `C=CC(=O)N1CCC(C2CCNc3c(C(N)=O)c(-c4ccccc4)nn32)CC1` (stereo not shown) [Compound 144, 7-(1-acryloylpiperidin-4-yl)-2-phenyl-4,5,6,7-tetrahydropyrazolo[1,5-a]pyrimidine-3-carboxamide trifluoroacetate] was 140 nM; that for `C=CC(=O)N1CC(C2CCNc3c(C(N)=O)c(-c4ccc(Cl)cc4)nn32)C1` (stereo not shown) [Compound 145, 7-(1-acryloylazetidin-3-yl)-2-(4-chlorophenyl)-4,5,6,7-tetrahydropyrazolo[1,5-a]pyrimidine-3-carboxamide] was 72 nM.
